# Experimental data taken from PubChem BioAssay AID1552 (Sanford-Burnham Center for Chemical Genomics, 2009).
# The source made the active and inactive calls. How the calls were made is not given here.
# Molecular target: Ubiquitin-conjugating enzyme E2 N (Homo sapiens) (UniProt P61088)
# Assay: NMR detection of UBE2N ligand binding – biophysical, purified protein (AID 1552)
# Conditions: NMR binding to purified UBE2N
# Ubiquitin-conjugating enzyme E2 N (Homo sapiens), sequence (P61088 whole entry, looked up): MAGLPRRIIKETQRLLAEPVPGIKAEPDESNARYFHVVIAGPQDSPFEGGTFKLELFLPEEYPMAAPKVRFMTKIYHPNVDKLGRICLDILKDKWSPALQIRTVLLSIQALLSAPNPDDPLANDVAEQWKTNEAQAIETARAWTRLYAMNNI
row,SMILES,Kd
1,O=S1(=O)C=C(Nc2ccccc2)CC1,> 4 mM (inactive)
2,O=C(c1ccccc1-c1ccccc1)N1CCOCC1,> 4 mM (inactive)
3,Cc1ccc(C(=O)N2CCC(C(N)=O)CC2)cc1C,> 4 mM (inactive)
4,Nn1cnn2c(SCc3ccccc3)nnc12,> 4 mM (inactive)
5,C=C1C([C@]2(C)C(CC(=O)OC)[C@@](C)(COC(C)=O)OC(=O)C[C@@H]2OC(C)=O)[C@@H](OC=O)[C@H](OC(=O)C(O)C(C)CC)[C@@]2(C)[C@H](c3ccoc3)CC(=O)C12O (some centres not stated),> 4 mM (inactive)
6,CNc1nc(N)c(C(=O)C(C)(C)C)s1,> 4 mM (inactive)
7,CC12CNCC(C)(CNC1)C2O (configuration not stated),> 4 mM (inactive)
8,O=c1c2ccccc2nc2n1CCS2,> 4 mM (inactive)
9,COC(=O)c1nc(-c2ccccc2)oc1N(C)C,> 4 mM (inactive)
10,COCC(=O)Nc1c(C(N)=O)oc2ccccc12,> 4 mM (inactive)
11,COc1ccc(C(N)=O)cc1NC(C)=O,> 4 mM (inactive)
12,NC1Cc2ccccc2C1,> 4 mM (inactive)
13,O=C(Nc1nnc(-c2ccco2)o1)c1ccc([N+](=O)[O-])o1,> 4 mM (inactive)
14,N=Nc1c(O)[nH]c2ccccc12,> 4 mM (inactive)
15,OCc1cccc2nonc12,> 4 mM (inactive)
16,CCCn1c(C)cc(=O)[nH]c1=O,> 4 mM (inactive)
17,Cc1c(C)[n+]([O-])c(-c2ccc([N+](=O)[O-])cc2)n1O,> 4 mM (inactive)
18,O=C(NN1CCOCC1)c1cccs1,> 4 mM (inactive)
19,CCCCn1c(=O)cc(O)c2ccccc21,> 4 mM (inactive)
20,CC(NC(=O)c1ccco1)C1CCCO1 (configuration not stated),> 4 mM (inactive)
21,Nc1ccc(Cc2ccc(N)cc2)cc1,> 4 mM (inactive)

row,SMILES,Kd
1,CC(C)=CCC1=C(O)c2ccccc2C(=O)C1=O,> 4 mM (inactive)
2,Cc1ccc(SCc2cc(=O)n3[nH]c(C)nc3n2)cc1,> 4 mM (inactive)
3,Nc1c(F)c(F)nc(F)c1F,> 4 mM (inactive)
4,CCOC(=O)c1c(C)nc2ccccn12,> 4 mM (inactive)
5,O=C(NCc1cccc(Cl)c1)c1ccco1,> 4 mM (inactive)
6,Cc1cc(NC(=O)CSc2nncn2C)no1,> 4 mM (inactive)
7,NC1=NC(=O)C(CC(=O)Nc2ccccc2F)S1 (configuration not stated),> 4 mM (inactive)
8,O=C(c1ccncc1)c1ccc(Br)cc1,> 4 mM (inactive)
9,CCn1nccc1C(=O)Nc1ccc(Cl)cc1Cl,> 4 mM (inactive)
10,CS(=O)(=O)Nc1cc2c3c(c1)CCN3C(=O)CC2,> 4 mM (inactive)
11,CCOc1cc(S(=O)(=O)N2CCOCC2)ccc1F,> 4 mM (inactive)
12,COC(=O)c1cc(C)on1,> 4 mM (inactive)
13,CN1CCN(C(=O)/C=C\C(=O)O)CC1,> 4 mM (inactive)
14,COC(=O)c1ccccc1N(C)S(C)(=O)=O,> 4 mM (inactive)
15,Cc1c(C(=O)Nc2cnccn2)oc2ccccc12,> 4 mM (inactive)
16,O=C1CNC(=O)N1Cc1ccc(Br)cc1,> 4 mM (inactive)
17,Cc1cc(N(CN2CCCC2=O)C(=O)c2ccccc2)no1,> 4 mM (inactive)
18,Nc1ccc(OC(F)(F)F)cc1,> 4 mM (inactive)
19,NC(=O)C1(c2ccccc2)CCOCC1,> 4 mM (inactive)
20,COC(=O)N1CCN(c2ccc(C(C)=O)cc2)CC1,> 4 mM (inactive)
21,OCc1ccc(-c2cccs2)s1,> 4 mM (inactive)

row,SMILES,Kd
1,NC(=O)CSc1nc2[nH]ncc2c(=O)[nH]1,> 4 mM (inactive)
2,Cc1cc(C)nc(NC(N)=NCc2ccco2)n1,> 4 mM (inactive)
3,O=C(Oc1ccc(-c2nnco2)cc1)N1CCOCC1,> 4 mM (inactive)
4,O=C(Nc1ccncc1)c1cncc(Br)c1,> 4 mM (inactive)
5,COc1ccc(N2C(=O)CCC2=O)c(OC)c1,> 4 mM (inactive)
6,Cc1cc(O)c(C=O)c(O)c1C(=O)O,> 4 mM (inactive)
7,Cc1nc(-c2ccc(C(=O)N3CCOCC3)cc2)cs1,> 4 mM (inactive)
8,CS(=O)(=O)N1CCN(C(=O)c2ccccc2F)CC1,> 4 mM (inactive)
9,Cc1ccc(=O)[nH]c1,> 4 mM (inactive)
10,S=c1[nH]nc(-c2cccnc2)n1C1CCCCC1,> 4 mM (inactive)
11,NCc1ccc(N2CCOCC2)cc1,> 4 mM (inactive)
12,Nc1ccc(S(=O)(=O)N2CCOCC2)cc1,> 4 mM (inactive)
13,c1ccc(-n2nnnc2-n2cnc3ccccc32)cc1,> 4 mM (inactive)
14,Cc1n[nH]c(=S)n1-c1ccc(C(=O)O)cc1,> 4 mM (inactive)
15,O=C1CC[C@]23/C=C/C(=O)NCCCCNCCCNC(=O)/C=C/c4ccc(c2c4)O[C@@H]3C1,> 4 mM (inactive)
16,CN1CCN(S(=O)(=O)c2ccc(=O)[nH]c2)CC1,> 4 mM (inactive)
17,CCc1ccc2oc(-c3cc(N)cc(C)c3O)nc2c1,> 4 mM (inactive)
18,Nc1nc(SCC(=O)c2ccc([N+](=O)[O-])cc2)n[nH]1,> 4 mM (inactive)
19,C=CC(C1=CC(=O)C(OC)=CC1=O)c1ccccc1 (configuration not stated),> 4 mM (inactive)
20,C=CCc1ccc(OC(=O)c2ccccc2)c(OC)c1,> 4 mM (inactive)
